Laboratory results: patent US20070173532A1, “New Piperidine Antibiotics” (Actelion Pharmaceuticals Ltd., priority 2004, published 2007)
≈ marks a conversion by molar mass, not a printed value.

Experiments:
Assay type in all cases: cell-based
S. aureus 29213 = test: MIC by microdilution (NCCLS) against S. aureus 29213; settings: pH 7.2-7.3; for MIC: Staphylococcus aureus, 29213, cation-adjusted Mueller-Hinton Broth
Description: (§1) These assays have been performed following the description given in “Methods for dilution Antimicrobial Susceptibility Tests for Bacteria that Grow Aerobically, 4th ed.; Approved standard: NCCLS Document M7-A4; National Committee for Clinical Laboratory Standards: Villanova, Pa., USA, 1997”. Minimal inhibitory concentrations (MICs; mg/l) were determined in cation-adjusted Mueller-Hinton Broth (BBL) by a microdilution method following NCCLS guidelines (National Committee for Clinical Laboratory Standards. Methods for Dilution Antimicrobial Susceptibility). The pH of the test medium was 7.2-7.3. All Examples were tested against several Gram positive and Gram negative bacteria.

S. aureus A798 = test: MIC by microdilution (NCCLS) against S. aureus A798; settings: pH 7.2-7.3; for MIC: Staphylococcus aureus, A798, cation-adjusted Mueller-Hinton Broth
Description: as §1

E. faecalis 29212 = test: MIC by microdilution (NCCLS) against E. faecalis 29212; settings: pH 7.2-7.3; for MIC: Enterococcus faecalis, 29212, cation-adjusted Mueller-Hinton Broth
Description: as §1

E. faecium A949 = test: MIC by microdilution (NCCLS) against E. faecium A949; settings: pH 7.2-7.3; for MIC: Enterococcus faecium, A949, cation-adjusted Mueller-Hinton Broth
Description: as §1

S. pneumoniae 49619 = test: MIC by microdilution (NCCLS) against S. pneumoniae 49619; settings: for MIC: Streptococcus pneumoniae, 49619, cation-adjusted Mueller-Hinton Broth, pH 7.2-7.3, read-out: MIC S. Pneunoniae 49619
Description: as §1

S. Pneunoniae A70 = test: MIC by microdilution (NCCLS) against S. Pneunoniae A70; settings: cation-adjusted Mueller-Hinton Broth, pH 7.2-7.3
Description: as §1

[1] = cation-adjusted Mueller-Hinton Broth

Row | MIC (S. aureus 29213) [µg/mL] | MIC (S. aureus A798) [µg/mL] | MIC (E. faecalis 29212) [µg/mL] | MIC (E. faecium A949) [µg/mL] | MIC (S. pneumoniae 49619) [µg/mL] | MIC (S. Pneunoniae A70) [µg/mL] | Compound | MIC S. aureus 29213 (S. aureus 29213; [1]) [µg/mL] | MIC S. aureus A798 (S. aureus A798; [1]) [µg/mL] | MIC E. faecalis 29212 (E. faecalis 29212; [1]) [µg/mL] | MIC E. faecium A949 (E. faecium A949; [1]) [µg/mL] | MIC S. Pneunoniae 49619 (S. pneumoniae 49619; cation-adjusted Mueller-Hinton Broth, pH 7.2-7.3) [µg/mL] | MIC S. Pneunoniae A70 (S. Pneunoniae A70) [µg/mL]
1 | 0.5 (≈ 0.999 µM) | 0.25 (≈ 0.499 µM) | 8 (≈ 16 µM) | 1 (≈ 2 µM) | 0.5 (≈ 0.999 µM) | 1 (≈ 2 µM) | COc1cnc2cccc(OCC[C@@H]3CCN(CCSc4cccs4)C[C@@H]3CCC(=O)O)c2c1 [Example 1, 3-{(3R,4S)-4-[2-(3-methoxy-quinolin-5-yloxy)-ethyl]-1-[2-(thiophen-2-ylsulfanyl)-ethyl]-piperidin-3-yl}-propionic acid] | – | – | – | – | – | –
2 | 1 (≈ 2.05 µM) | 0.25 (≈ 0.514 µM) | 2 (≈ 4.11 µM) | 2 (≈ 4.11 µM) | 0.5 (≈ 1.03 µM) | 1 (≈ 2.05 µM) | COc1cnc2cccc(OCC[C@@H]3CCN(CCSc4cccs4)C[C@@H]3CCCO)c2c1 [Example 2, 3-{(3R,4S)4-[2-(3-methoxy-quinolin-5-yloxy)-ethyl]-1-[2-(thiophen-2-ylsulfanyl)-ethyl]-piperidin-3-yl}-propan-1-ol] | – | – | – | – | – | –
3 | – | – | – | – | – | – | COc1cnc2cccc(C(O)CC[C@@H]3CCN(C/C=C/c4ccccc4)C[C@@H]3C(=O)O)c2c1 (mixture of isomers) [Example 10, (3R,4R)-4-[(3RS)-3-hydroxy-3-(3-methoxy-quinolin-5-yl)-propyl]-1-trans-(3-phenyl-allyl)-piperidine-3-carboxylic acid] | 0.5 (≈ 1.09 µM) | 0.25 (≈ 0.543 µM) | 4 (≈ 8.68 µM) | 4 (≈ 8.68 µM) | 1 (≈ 2.17 µM) | 4 (≈ 8.68 µM)
